According to the NIST ThermoML archive (doi:10.1016/j.fluid.2013.11.026):

Assays:
[1] = xn = mol fraction of the nth substance listed; conditions: 101 kPa, Liquid, Vibrating tube method
[2] = 101.33 kPa, Liquid, Vibrating tube method
[3] = refractive index (Na D-line) (dimensionless); conditions: 101.33 kPa, Liquid, Standard Abbe refractometry
[4] = excess molar enthalpy (molar enthalpy of mixing); xn = mol fraction of the nth substance listed; conditions: 101 kPa, Liquid, Calvet calorimetry

CCCCC [pentane] + CCOC=O
[1], x2 = 0
Conditions | mass density [kg/m3]
291.15 K | 627.86
298.15 K | 620.89

CCOC=O [ethyl methanoate]
Conditions | mass density, [2] [kg/m3] | refractive index, [3]
291.15 K | 923.4 | 1.3614
298.15 K | 914.35 | 1.358

COC=O [methyl methanoate] + CCCCC
291.15 K
Conditions | excess molar enthalpy [kcal/mol] | mass density [kg/m3]
[1], x1 = 0.091 | – | 640.27
[1], x1 = 0.102 | – | 641.95
[1], x1 = 0.147 | – | 649.45
[1], x1 = 0.206 | – | 660.56
[1], x1 = 0.27 | – | 674.05
[1], x1 = 0.309 | – | 683.08
[1], x1 = 0.371 | – | 698.6
[1], x1 = 0.393 | – | 704.52
[1], x1 = 0.416 | – | 710.63
[1], x1 = 0.451 | – | 721.01
[1], x1 = 0.488 | – | 732.21
[1], x1 = 0.506 | – | 737.92
[1], x1 = 0.559 | – | 755.6
[1], x1 = 0.618 | – | 776.61
[1], x1 = 0.695 | – | 807.5
[1], x1 = 0.759 | – | 835.94
[1], x1 = 0.786 | – | 849.13
[1], x1 = 0.827 | – | 870.13
[1], x1 = 0.84 | – | 876.82
[1], x1 = 0.941 | – | 936.47
[1], x1 = 1 | – | 977.21
[4], x1 = 0.1107 | 0.1511 | –
[4], x1 = 0.2113 | 0.2758 | –
[4], x1 = 0.3055 | 0.3714 | –
[4], x1 = 0.3765 | 0.418 | –
[4], x1 = 0.438 | 0.4412 | –
[4], x1 = 0.4783 | 0.4484 | –
[4], x1 = 0.5268 | 0.4539 | –
[4], x1 = 0.5716 | 0.4503 | –
[4], x1 = 0.6028 | 0.4398 | –
[4], x1 = 0.6356 | 0.4264 | –
[4], x1 = 0.6702 | 0.4089 | –
[4], x1 = 0.7191 | 0.3817 | –
[4], x1 = 0.7683 | 0.3425 | –
[4], x1 = 0.8256 | 0.2882 | –
[4], x1 = 0.8773 | 0.2266 | –
[4], x1 = 0.9215 | 0.158 | –
[4], x1 = 0.9587 | 0.0827 | –

CCCCOC=O [butyl methanoate] + CCCCC
Conditions | excess molar enthalpy [kcal/mol] | mass density [kg/m3]
[1], 291.15 K, x1 = 0.0482 | – | 640.01
[1], 291.15 K, x1 = 0.1029 | – | 654.1
[1], 291.15 K, x1 = 0.1541 | – | 667.59
[1], 291.15 K, x1 = 0.2028 | – | 680.41
[1], 291.15 K, x1 = 0.2999 | – | 706.35
[1], 291.15 K, x1 = 0.3486 | – | 719.53
[1], 291.15 K, x1 = 0.453 | – | 747.88
[1], 291.15 K, x1 = 0.5029 | – | 761.43
[1], 291.15 K, x1 = 0.5974 | – | 786.96
[1], 291.15 K, x1 = 0.7 | – | 814.79
[1], 291.15 K, x1 = 0.8074 | – | 843.81
[1], 291.15 K, x1 = 0.8966 | – | 868.4
[1], 291.15 K, x1 = 0.9452 | – | 881.04
[1], 291.15 K, x1 = 1 | – | 895.86
[1], 298.15 K, x1 = 0.0584 | – | 635.57
[1], 298.15 K, x1 = 0.1147 | – | 650.09
[1], 298.15 K, x1 = 0.1936 | – | 670.91
[1], 298.15 K, x1 = 0.301 | – | 699.46
[1], 298.15 K, x1 = 0.343 | – | 710.8
[1], 298.15 K, x1 = 0.3886 | – | 723.15
[1], 298.15 K, x1 = 0.4521 | – | 740.45
[1], 298.15 K, x1 = 0.4958 | – | 752.3
[1], 298.15 K, x1 = 0.5442 | – | 765.49
[1], 298.15 K, x1 = 0.6477 | – | 793.55
[1], 298.15 K, x1 = 0.7529 | – | 822.18
[1], 298.15 K, x1 = 0.8993 | – | 861.53
[1], 298.15 K, x1 = 1 | – | 888.47
[4], 291.15 K, x1 = 0.0661 | 0.0774 | –
[4], 291.15 K, x1 = 0.1254 | 0.1231 | –
[4], 291.15 K, x1 = 0.1836 | 0.1594 | –
[4], 291.15 K, x1 = 0.2321 | 0.1862 | –
[4], 291.15 K, x1 = 0.2846 | 0.2041 | –
[4], 291.15 K, x1 = 0.3351 | 0.2141 | –
[4], 291.15 K, x1 = 0.3832 | 0.2196 | –
[4], 291.15 K, x1 = 0.4276 | 0.2208 | –
[4], 291.15 K, x1 = 0.4704 | 0.2187 | –
[4], 291.15 K, x1 = 0.5095 | 0.2156 | –
[4], 291.15 K, x1 = 0.5587 | 0.2084 | –
[4], 291.15 K, x1 = 0.6121 | 0.1965 | –
[4], 291.15 K, x1 = 0.6666 | 0.1781 | –
[4], 291.15 K, x1 = 0.7272 | 0.1522 | –
[4], 291.15 K, x1 = 0.799 | 0.118 | –
[4], 291.15 K, x1 = 0.8702 | 0.076 | –
[4], 291.15 K, x1 = 0.9372 | 0.0394 | –
[4], 298.15 K, x1 = 0.0471 | 0.0748 | –
[4], 298.15 K, x1 = 0.0941 | 0.13 | –
[4], 298.15 K, x1 = 0.1606 | 0.1769 | –
[4], 298.15 K, x1 = 0.2273 | 0.2079 | –
[4], 298.15 K, x1 = 0.2903 | 0.228 | –
[4], 298.15 K, x1 = 0.3523 | 0.238 | –
[4], 298.15 K, x1 = 0.4102 | 0.24 | –
[4], 298.15 K, x1 = 0.4611 | 0.2361 | –
[4], 298.15 K, x1 = 0.5095 | 0.2292 | –
[4], 298.15 K, x1 = 0.5166 | 0.2254 | –
[4], 298.15 K, x1 = 0.5673 | 0.2163 | –
[4], 298.15 K, x1 = 0.6237 | 0.202 | –
[4], 298.15 K, x1 = 0.6862 | 0.1773 | –
[4], 298.15 K, x1 = 0.754 | 0.1511 | –
[4], 298.15 K, x1 = 0.8174 | 0.1202 | –
[4], 298.15 K, x1 = 0.8803 | 0.0815 | –
[4], 298.15 K, x1 = 0.9477 | 0.0402 | –

CCCCC [pentane] + CCCOC=O
[1], x2 = 0
Conditions | mass density [kg/m3]
291.15 K | 627.86
298.15 K | 620.89

COC=O [methyl methanoate]
Conditions | mass density, [2] [kg/m3] | refractive index, [3]
291.15 K | 977.21 | 1.3452
298.15 K | 966.54 | 1.3415

CCCCC [pentane]
Conditions | mass density, [2] [kg/m3] | refractive index, [3]
291.15 K | 627.86 | 1.3589
298.15 K | 620.89 | 1.3545
